Measurements reported in PubChem BioAssay (NCI).
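All cell lines were grown in 96-well plates and treated with compound for 48 hours. Abbreviation: GI50, concentration required for 50% inhibition of growth. Definition used: TGI = concentration required for complete inhibition of growth.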

Columns and labels:
Assay in all cases: NCI anticancer screen, dose series, 48 h; in the data active means GI50 below about 0.43 µM; inactive means the rest
UO-31 renal = system: UO-31 renal
SNB-75 CNS = system: SNB-75 CNS
SK-MEL-2 melanoma = system: SK-MEL-2 melanoma
SF-268 CNS = system: SF-268 CNS
SR leukemia = system: SR leukemia
SNB-19 CNS = system: SNB-19 CNS
SK-MEL-28 melanoma = system: SK-MEL-28 melanoma
HL-60(TB) leukemia = system: HL-60(TB) leukemia
OVCAR-8 ovarian = system: OVCAR-8 ovarian
SK-MEL-5 melanoma = system: SK-MEL-5 melanoma
OVCAR-3 ovarian = system: OVCAR-3 ovarian
SN12C renal = system: SN12C renal
CCRF-CEM leukemia = system: CCRF-CEM leukemia
MCF7 breast = system: MCF7 breast
HOP-62 NSCLC = system: HOP-62 NSCLC
T-47D breast = system: T-47D breast
OVCAR-5 ovarian = system: OVCAR-5 ovarian
RPMI-8226 leukemia = system: RPMI-8226 leukemia
COLO 205 colon = system: COLO 205 colon
IGROV1 ovarian = system: IGROV1 ovarian
MOLT-4 leukemia = system: MOLT-4 leukemia
CAKI-1 renal = system: CAKI-1 renal
SW-620 colon = system: SW-620 colon
HCC-2998 colon = system: HCC-2998 colon
K-562 leukemia = system: K-562 leukemia
ACHN renal = system: ACHN renal
A549 NSCLC = system: A549 NSCLC
U251 CNS = system: U251 CNS
HCT-116 colon = system: HCT-116 colon
M14 melanoma = system: M14 melanoma
UACC-62 melanoma = system: UACC-62 melanoma
OVCAR-4 ovarian = system: OVCAR-4 ovarian
MDA-MB-231 breast = system: MDA-MB-231 breast
BT-549 breast = system: BT-549 breast
NCI-H460 lung = system: NCI-H460 lung
PC-3 prostate = system: PC-3 prostate
UACC-257 melanoma = system: UACC-257 melanoma
SF-539 CNS = system: SF-539 CNS
SK-OV-3 ovarian = system: SK-OV-3 ovarian
NCI/ADR-RES ovarian = system: NCI/ADR-RES ovarian
SF-295 CNS = system: SF-295 CNS
TK-10 renal = system: TK-10 renal
RXF 393 renal = system: RXF 393 renal
KM12 colon = system: KM12 colon
NCI-H226 lung = system: NCI-H226 lung
DU-145 prostate = system: DU-145 prostate
HCT-15 colon = system: HCT-15 colon
MALME-3M melanoma = system: MALME-3M melanoma
NCI-H23 lung = system: NCI-H23 lung
A498 renal = system: A498 renal
HOP-92 NSCLC = system: HOP-92 NSCLC
MDA-MB-435 = system: MDA-MB-435
LOX IMVI melanoma = system: LOX IMVI melanoma
HS 578T breast = system: HS 578T breast
NCI-H522 lung = system: NCI-H522 lung
786-0 renal = system: 786-0 renal
HT29 colon = system: HT29 colon

COc1ccccc1-c1c(C)nn2c(NCc3ccccn3)cc(C)nc12
49.6 µM: TGI (SK-MEL-5 melanoma)
> 50 µM: TGI (UO-31 renal) | TGI (SNB-75 CNS) | TGI (SK-MEL-2 melanoma) | TGI (SF-268 CNS) | TGI (SR leukemia) | TGI (SNB-19 CNS) | TGI (SK-MEL-28 melanoma) | TGI (HL-60(TB) leukemia) | TGI (OVCAR-8 ovarian) | TGI (OVCAR-3 ovarian) | TGI (SN12C renal) | TGI (CCRF-CEM leukemia) | TGI (MCF7 breast) | TGI (HOP-62 NSCLC) | TGI (T-47D breast) | TGI (OVCAR-5 ovarian) | TGI (RPMI-8226 leukemia) | TGI (COLO 205 colon) | TGI (IGROV1 ovarian) | TGI (MOLT-4 leukemia) | TGI (CAKI-1 renal) | TGI (SW-620 colon) | TGI (HCC-2998 colon) | TGI (K-562 leukemia) | TGI (ACHN renal) | TGI (A549 NSCLC) | TGI (U251 CNS) | TGI (HCT-116 colon) | TGI (M14 melanoma) | TGI (UACC-62 melanoma) | TGI (OVCAR-4 ovarian) | TGI (MDA-MB-231 breast) | TGI (BT-549 breast) | TGI (NCI-H460 lung) | TGI (PC-3 prostate) | TGI (UACC-257 melanoma) | TGI (SF-539 CNS) | TGI (SK-OV-3 ovarian) | TGI (NCI/ADR-RES ovarian) | TGI (SF-295 CNS) | TGI (TK-10 renal) | TGI (RXF 393 renal) | TGI (KM12 colon) | TGI (NCI-H226 lung) | TGI (DU-145 prostate) | TGI (HCT-15 colon) | TGI (MALME-3M melanoma) | TGI (NCI-H23 lung) | TGI (A498 renal) | TGI (HOP-92 NSCLC) | TGI (MDA-MB-435) | TGI (LOX IMVI melanoma) | TGI (HS 578T breast) | TGI (NCI-H522 lung) | TGI (786-0 renal) | TGI (HT29 colon)
inactive: GI50 (UO-31 renal) 10.2 µM | GI50 (SNB-75 CNS) > 50 µM | GI50 (SK-MEL-2 melanoma) > 50 µM | GI50 (SF-268 CNS) 34.8 µM | GI50 (SR leukemia) 17 µM | GI50 (SNB-19 CNS) > 50 µM | GI50 (SK-MEL-28 melanoma) > 36.9 µM | GI50 (HL-60(TB) leukemia) 20.4 µM | GI50 (OVCAR-8 ovarian) 23.9 µM | GI50 (SK-MEL-5 melanoma) 14.8 µM | GI50 (OVCAR-3 ovarian) 2.58 µM | GI50 (SN12C renal) 29.9 µM | GI50 (CCRF-CEM leukemia) 6.89 µM | GI50 (MCF7 breast) 2.92 µM | GI50 (HOP-62 NSCLC) 34.7 µM | GI50 (T-47D breast) 1.04 µM | GI50 (OVCAR-5 ovarian) > 50 µM | GI50 (RPMI-8226 leukemia) 13.6 µM | GI50 (COLO 205 colon) 1.92 µM | GI50 (IGROV1 ovarian) > 37.5 µM | GI50 (MOLT-4 leukemia) 7.68 µM | GI50 (CAKI-1 renal) 12.4 µM | GI50 (SW-620 colon) 14.9 µM | GI50 (HCC-2998 colon) > 50 µM | GI50 (K-562 leukemia) 5.85 µM | GI50 (ACHN renal) 3.51 µM | GI50 (A549 NSCLC) 26.7 µM | GI50 (U251 CNS) > 41.9 µM | GI50 (HCT-116 colon) 3.75 µM | GI50 (M14 melanoma) 24.7 µM | GI50 (UACC-62 melanoma) 16.9 µM | GI50 (OVCAR-4 ovarian) 2.32 µM | GI50 (MDA-MB-231 breast) 34.7 µM | GI50 (BT-549 breast) > 37.3 µM | GI50 (NCI-H460 lung) 27.1 µM | GI50 (PC-3 prostate) 30.6 µM | GI50 (UACC-257 melanoma) 11.2 µM | GI50 (SF-539 CNS) 44.3 µM | GI50 (SK-OV-3 ovarian) > 50 µM | GI50 (NCI/ADR-RES ovarian) 24.5 µM | GI50 (SF-295 CNS) 21.2 µM | GI50 (TK-10 renal) > 25.6 µM | GI50 (RXF 393 renal) 33.5 µM | GI50 (KM12 colon) > 46.6 µM | GI50 (NCI-H226 lung) 40.3 µM | GI50 (DU-145 prostate) > 40.2 µM | GI50 (HCT-15 colon) 9.76 µM | GI50 (MALME-3M melanoma) > 17.1 µM | GI50 (NCI-H23 lung) 48.7 µM | GI50 (A498 renal) 3.84 µM | GI50 (HOP-92 NSCLC) 15.9 µM | GI50 (MDA-MB-435) 23 µM | GI50 (LOX IMVI melanoma) 29.8 µM | GI50 (HS 578T breast) > 44.7 µM | GI50 (NCI-H522 lung) 21.3 µM | GI50 (786-0 renal) 36.4 µM | GI50 (HT29 colon) 7.31 µM

COc1ccc(/C=C2\CCCC3=C2NC(C)=NC3c2ccc(OC)c(OC)c2)cc1OC (centres undefined)
99.8 µM: TGI (NCI-H226 lung)
92.6 µM: TGI (HOP-92 NSCLC)
38.8 µM: TGI (HOP-62 NSCLC)
56.3 µM: TGI (RPMI-8226 leukemia)
inactive: GI50 (UO-31 renal) 31.1 µM | GI50 (SNB-75 CNS) 32 µM | GI50 (SK-MEL-2 melanoma) 15.9 µM | GI50 (SF-268 CNS) 21 µM | GI50 (SR leukemia) 1.99 µM | GI50 (SNB-19 CNS) 67.1 µM | GI50 (SK-MEL-28 melanoma) > 100 µM | GI50 (HL-60(TB) leukemia) 5.84 µM | GI50 (OVCAR-8 ovarian) 4.68 µM | GI50 (SK-MEL-5 melanoma) 9.43 µM | GI50 (OVCAR-3 ovarian) 5.47 µM | GI50 (SN12C renal) 63.9 µM | GI50 (CCRF-CEM leukemia) 2.75 µM | GI50 (MCF7 breast) 2.44 µM | GI50 (HOP-62 NSCLC) 3.75 µM | GI50 (T-47D breast) 14.7 µM | GI50 (OVCAR-5 ovarian) 71 µM | GI50 (RPMI-8226 leukemia) 0.848 µM | GI50 (COLO 205 colon) 5.5 µM | GI50 (IGROV1 ovarian) 50.6 µM | GI50 (MOLT-4 leukemia) 24.8 µM | GI50 (CAKI-1 renal) 21.4 µM | GI50 (SW-620 colon) 7.69 µM | GI50 (HCC-2998 colon) > 100 µM | GI50 (K-562 leukemia) 4.54 µM | GI50 (ACHN renal) 6.74 µM | GI50 (A549 NSCLC) 53.7 µM | GI50 (U251 CNS) 23.4 µM | GI50 (HCT-116 colon) 2.39 µM | GI50 (M14 melanoma) 18.6 µM | GI50 (UACC-62 melanoma) 12.9 µM | GI50 (OVCAR-4 ovarian) 12.4 µM | GI50 (MDA-MB-231 breast) 12.9 µM | GI50 (BT-549 breast) 23.7 µM | GI50 (NCI-H460 lung) 47.7 µM | GI50 (PC-3 prostate) 37.4 µM | GI50 (UACC-257 melanoma) 10.9 µM | GI50 (SF-539 CNS) 27.5 µM | GI50 (SK-OV-3 ovarian) 19.2 µM | GI50 (NCI/ADR-RES ovarian) 15.2 µM | GI50 (TK-10 renal) 12.3 µM | GI50 (RXF 393 renal) 4.02 µM | GI50 (KM12 colon) 61.2 µM | GI50 (NCI-H226 lung) 12.2 µM | GI50 (DU-145 prostate) 16.5 µM | GI50 (HCT-15 colon) 3.52 µM | GI50 (MALME-3M melanoma) 22.2 µM | GI50 (NCI-H23 lung) 28.6 µM | GI50 (A498 renal) 16.4 µM | GI50 (HOP-92 NSCLC) 18.9 µM | GI50 (MDA-MB-435) 1.05 µM | GI50 (LOX IMVI melanoma) 51.1 µM | GI50 (HS 578T breast) 39.1 µM | GI50 (786-0 renal) 33.7 µM | GI50 (HT29 colon) 21.7 µM
16.3 µM: TGI (RXF 393 renal)
74.7 µM: TGI (TK-10 renal)
22.1 µM: TGI (HCT-116 colon)
> 100 µM: TGI (UO-31 renal) | TGI (SNB-75 CNS) | TGI (SK-MEL-2 melanoma) | TGI (SF-268 CNS) | TGI (SR leukemia) | TGI (SNB-19 CNS) | TGI (SK-MEL-28 melanoma) | TGI (HL-60(TB) leukemia) | TGI (OVCAR-8 ovarian) | TGI (SK-MEL-5 melanoma) | TGI (OVCAR-3 ovarian) | TGI (SN12C renal) | TGI (CCRF-CEM leukemia) | TGI (MCF7 breast) | TGI (T-47D breast) | TGI (OVCAR-5 ovarian) | TGI (COLO 205 colon) | TGI (IGROV1 ovarian) | TGI (MOLT-4 leukemia) | TGI (CAKI-1 renal) | TGI (SW-620 colon) | TGI (HCC-2998 colon) | TGI (K-562 leukemia) | TGI (ACHN renal) | TGI (A549 NSCLC) | TGI (U251 CNS) | TGI (M14 melanoma) | TGI (UACC-62 melanoma) | TGI (OVCAR-4 ovarian) | TGI (BT-549 breast) | TGI (NCI-H460 lung) | TGI (PC-3 prostate) | TGI (UACC-257 melanoma) | TGI (SF-539 CNS) | TGI (SK-OV-3 ovarian) | TGI (NCI/ADR-RES ovarian) | TGI (KM12 colon) | TGI (DU-145 prostate) | TGI (HCT-15 colon) | TGI (MALME-3M melanoma) | TGI (NCI-H23 lung) | TGI (A498 renal) | TGI (MDA-MB-435) | TGI (LOX IMVI melanoma) | TGI (HS 578T breast) | TGI (786-0 renal) | TGI (HT29 colon)
75.3 µM: TGI (MDA-MB-231 breast)
